According to patent US20050101633A1, “Remedial agent for myelopathic disease” (priority 2001, published 2005):

Columns and labels:
[1] = system: spinal cord injury model in rats; conditions: reported in Brain Research, 799, 264-269 (1998); cited from earlier work
blood-CNS barrier = test: Blood-CNS barrier disruption (Evans blue dye) after spinal cord injury; format: in vivo, rat; conditions: 50 mg/kg injected 15 min before SCI; Evans blue at 6 h after SCI; FIG. 3
Procedure: Disruption of the blood-CNS barrier was assessed according to the method of Uyama et al. [J. Cereb. Blood Flow Metab. 8, 282-284 (1988)] with certain modifications. SCI was induced 15 min after injection of test compound (50 mg/kg). At 6 h after SCI, 4 mL/kg of 2.5% Evans blue dye solution was administered via the femoral vein. One hour later rats were anesthetized by pentobarbital (40 mg/kg) and killed. The T13 spinal cord segment was removed and homogenized in 1 mL of 50% trichloroacetic acid (w/v). After centrifugation the extracted dye was diluted fourfold with ethanol, and its fluorescence was quantified using a spectrophotometer at an excitation wavelength of 620 nm and an emission wavelength of 680 nm.

[2] = system: rat spinal cord injury model; test: Improvement of dyskinesia, inclined-plane test after spinal cord injury; format: in vivo; conditions: 50 mg/kg injected 15 min before SCI; compression injury with 20-g weight; up to 28 days; FIG. 5
Procedure: (§1) SCI was induced 15 min after injection of test compound (50 mg/kg). Dyskinesia was assessed according to an open field walking scale (Behrmann et al., Exp. Neurol. 126, 61-75 (1994)) and an inclined-plane test (Rivlin et al., J. Neurosurg. 47, 577-581 (1977)) using rats subjected to compression injury with a 20-g weight. In the open field walking scale, animals were scored from 0 (no spontaneous movement) to 5 (normal gait) based on 5 min of observation. With the scale, the animal's capability for gross hindlimb movement was evaluated before SCI, every 2 days afterward for 2 weeks beginning on the first day, and later at 21 and 28 days after injury. In the inclined-plane test, a cork mat was fixed to the surface of a movable inclined plane. We recorded the maximal angle of inclined-plane at which the rat could maintain position for […]. This was evaluated before and at 1, 7, 14, 21 and 28 days after injury.

CINC-1 protein = test: Suppression of CINC-1 expression on rat spinal cord injury model; format: in vivo; conditions: Wistar rats; injected via femoral vein 15 min before spinal cord injury; T13 segment; FIG. 1
Procedure: Under anesthesia using pentobarbital (40 mg/kg of body weight), spinal cord injury model was made using Wistar rats weighing 250-300 g according to the operative procedure of Tonai et al. [J. Neurochem. 72, 302-309 (1999)]. At various time intervals after injury, the rats were frozen, and then T13 spinal cord segment was removed for analysis of CINC-1 protein.
The test compound was dissolved in physiologic saline containing 12 mM Na2CO3 and injected via the femoral vein 15 min before spinal cord injury. Saline vehicle alone was administered by the same route in control animals.

[3] = system: rat spinal cord injury model; test: Improvement of dyskinesia, open field walking scale after spinal cord injury; format: in vivo; conditions: 50 mg/kg injected 15 min before SCI; compression injury with 20-g weight; up to 28 days; FIG. 4
Procedure: as §1

myeloperoxidase activity = test: Assay of myeloperoxidase (MPO) activity in T13 spinal cord segment after spinal cord injury; format: in vivo, rat; conditions: administered 15 minutes before spinal cord injury, FIG. 2
Procedure: For assessment of accumulation and infiltration of leukocytes, we measured myeloperoxidase activity according to a modification of the method of Xu et al. (J. neurochem. 55, 907-912 (1990)). The test compound was administrated 15 minutes before spinal cord injury, and then the T13 segments 2, 4, 8, 12 and 24 h after injury were sonicated in 1 mL of 50 mM potassium phosphate buffer (pH 6.0) containing 0.5% […]. The homogenates were centrifuged at 10,000×g for 20 min, and 0.1 mL of the supernatant was added to 0.6 mL of 50 mM potassium phosphate buffer (pH 6.0) containing 0.53 mM o-dianisidine dihydrochrolide and 0.15 mM H2O2. After 5 min, the change in absorbance at 460 nm was monitored with a spectrophotometer (model DU 640, Beckmann, Germany).

Molecule	efficacy in spinal cord injury model in rats [1]	Blood-CNS barrier disruption (blood-CNS barrier)	dyskinesia after spinal cord injury, inclined-plane test [2]	CINC-1 protein expression after spinal cord injury (CINC-1 protein)	dyskinesia after spinal cord injury, open field walking scale [3]	myeloperoxidase activity (myeloperoxidase activity; 4 hours after injury)	myeloperoxidase activity (myeloperoxidase activity; 12 hours after injury)	myeloperoxidase activity (myeloperoxidase activity; 24 hours after injury)
CO[C@H]1C(=O)N2C(C(=O)N3CCC[C@H]3C(=O)O)=C(COC(C)=O)CS(=O)(=O)[C@H]12 [L 658,758]	effective							
CC(C)(C)C(=O)Oc1ccc(S(=O)(=O)Nc2ccccc2C(=O)NCC(=O)[O-])cc1.O.O.O.O.[Na+] [compound (X), N-[o-(p-pivaloyloxybenzenesulfonylamino)benzoyl]glycine monosodium salt tetrahydrate]		suppressed Blood-CNS barrier disruption significantly	suppressed dyskinesia after spinal cord injury significantly	suppressed in dose-dependently	suppressed dyskinesia after spinal cord injury significantly	46 % of control	61 % of control	64 % of control
Eglin C	effective							
